Data as given in paper doi:10.1101/2025.08.08.668114, “Structure-Activity Relationship Studies Towards Analogues of Pleconaril as Novel Enterovirus-D68 Capsid-Targeting Antivirals” (bioRxiv, 2025).
Converted amounts (≈) assume the structure as drawn. Like-named read-outs stand apart in the source and are kept apart here.

Columns and labels:
[1] = test system: RD cells; experiment: RD cell cytotoxicity by MTT assay on uninfected cells; details: geometric mean
[2] = Human microsomal stability; details: for microsomal CLint at 2 µM: human, pH 7.4
[3] = Mouse microsomal stability; details: pH 7.4
[4] = in vitro; details: human
[5] = physchem; details: kinetic from dmso stock
[6] = test system: P-gp (human MDR1); experiment: in vitro; details: dog, MDCK-MDR1, MDCKII-MDR1 Papp A→B
[7] = LogD at pH 7.4, shake-flask method; details: for logD: pH 7.4
[8] = test system: EV-D68 (strain US/MO/14-18949); experiment: EV-D68 antiviral screening assay in RD cells
[9] = test system: P-gp (human MDR1); experiment: MDCKII-MDR1 A→B permeability; details: dog, MDCK-MDR1
[10] = test system: MDCKII cells transfected with human MDR1 (P-gp); details: dog, MDCK-MDR1
[11] = test system: EV-D68; details: in-vitro; read-out: Published EV-D68 EC50; cited from earlier work
[12] = test system: human pregnane-X receptor (PXR); parameters: method as in PMID 37327878; details: cited from earlier work
[13] = test system: cytochrome P450 (CYP) enzyme; parameters: method as in PMID 12802751; details: after repeated dosing; cited from earlier work
[14] = Kinetic aqueous solubility (KSOL), shake-flask method
[15] = test system: cytochrome P450 (CYP) enzyme; parameters: method as in PMID 37327878; details: cited from earlier work
[16] = test system: MDCKII cells transfected with human MDR1 (P-gp); experiment: MDCKII-MDR1 A→B permeability; details: apical to basolateral
[17] = Enterovirus D, EVD68, RD, read-out: EC50 EV-D68, RD cells, strain US/MO/14-18949, geometric mean
[18] = Enterovirus D, EVD68, RD, read-out: EV-D68 pEC50, pEC50 = −log10(EC50) (converted), RD cells

SMILES	microsomal CLint at 2 µM ([2]; liver microsomes)	microsomal CLint at 2 µM ([3]; liver microsomes)	CC50 ([4]; RD cells, uninfected)	solubility kinetic [5]	Papp A→B [6]	logD [7]	EC50 [8, 17]	also measured
Cc1nc(-c2ccc(OCCCCCN3CCN(c4ccnc(N)c4)C3=O)cc2)no1 [Compound S-59, NLD-22]	–	–	–	–	–	–	–	CC50 [1]: > 25.6 µM
CN(C)C(=O)c1cc(CCCn2ccc3cc(-c4noc(C(F)(F)F)n4)cnc32)on1 [Compound 29]	30 µL/min/mg	133 µL/min/mg	> 100 µM	28 µM (≈ 12.2 µg/mL)	15.5 ×10⁻⁶ cm/s	3.8	1890 nM	–
Cc1cc(-c2noc(C(F)(F)F)n2)ccc1OCCCc1nnc(C(F)(F)F)o1 [Compound 38]	–	–	> 50 µM	–	–	–	–	EC50 ([8]; Enterovirus D, EVD68, RD, read-out: EC50 EV-D68 (Table 4), RD cells, Table 4 head): 39900 nM
CCOC(=O)c1ccc(OCCC2CCN(c3ccc(C)nn3)CC2)cc1 [Compound S-58, Pirodavir, reference compound]	–	–	–	–	–	–	277 nM	microsomal CLint at 2 µM ([2]; microsomes): 708 µL/min/mg; microsomal CLint at 2 µM ([3]; microsomes): 580 µL/min/mg; CC50 [4]: > 50 µM; Papp A→B [9]: 9 ×10⁻⁶ cm/s
Cc1cc(CCCOc2c(C)cc(-c3noc(C(F)(F)F)n3)cc2C)on1 [Compound 1, Pleconaril]	–	22 µL/min/mg	> 50 µM	18 µM (≈ 6.86 µg/mL)	1.4 ×10⁻⁶ cm/s	4.2	< 29.5 nM	microsomal CLint at 2 µM ([2]; microsomes): 12 µL/min/mg; MDCKII-MDR1 Papp A→B [10]: 1.42 10^−6 cm s^−1; EC50 [11]: 430 nM; agonism of human PXR [12]: Neither 1 nor 2 are agonists; CYP induction (side effect) [13]: well-known side effect; EC50 ([8]; read-out: EC50 EV-D68, RD cells, strain US/MO/14-18949, geometric mean, listed as Pleconaril (1)): < 29 nM
CN(C)C(=O)c1cc(-c2cccc(Oc3ccc(-c4noc(C(F)(F)F)n4)cc3)c2)on1 [Compound 31]	–	–	> 50 µM	–	–	–	4870 nM	–
Cc1cc(-c2noc(C(F)(F)F)n2)ccc1Oc1cncc(-c2cc(C(=O)N(C)C)no2)c1 [Compound 32]	–	–	> 50 µM	–	–	–	4350 nM	–
C#CCc1ccc(OCCCc2cc(C(=O)N(C)C)no2)cc1 [Compound 55]	–	–	–	198 µM (≈ 61.8 µg/mL)	–	3.1	–	EC50 [8, 18]: 617 nM
Cc1cc(-c2noc(C(F)(F)F)n2)ccc1O[C@@H]1CCN(c2cc(C(=O)N(C)C)no2)C1 [Compound 33]	24 µL/min/mg	38 µL/min/mg	> 50 µM	< 10 µM	4 ×10⁻⁶ cm/s	4.2	437 nM	Solubility, Kinetic (KSOL) [14]: 9 µM (≈ 4.06 µg/mL)
Cc1cc(-c2noc(C(F)(F)F)n2)ccc1OCCCc1cc(C(=O)N(C)C)no1 [Compound 2, CP-11526092, reference compound]	11 µL/min/mg	24 µL/min/mg	> 42 µM	9 µM (≈ 3.82 µg/mL)	2.3 ×10⁻⁶ cm/s	≥ 4.5	43 nM	MDCKII-MDR1 Papp A→B [10]: 2.26 10^−6 cm s^−1; EC50 [11]: 42 nM; agonism of human PXR [12]: Neither 1 nor 2 are agonists; CYP induction according to in-vitro data [15]: still present; EC50 [8, 18]: 43.7 nM; Lipophilic Cellular Efficiency (LipCellE) ([8]; cellular pEC50 − AlogP98): > 3; CC50 ([1]; listed as CP-11526092 (2)): > 50 µM
Cc1cc(-c2noc(C(F)(F)F)n2)ccc1OCCNc1cc(C(=O)N(C)C)no1 [Compound 24]	–	–	> 50 µM	–	–	–	> 30400 nM	–
CCO/N=C/c1ccc(OCCC2CCN(c3ccc(C)nn3)CC2)cc1 [Compound S-57, BTA-188]	–	–	–	–	–	–	–	CC50 [1]: > 50 µM
CN(C)C(=O)c1cc(CCCn2ccc3cc(-c4noc(C(F)(F)F)n4)ncc32)on1 [Compound 30]	20 µL/min/mg	29 µL/min/mg	> 100 µM	30 µM (≈ 13 µg/mL)	3.5 ×10⁻⁶ cm/s	3	8430 nM	–
CN(C)C(=O)c1cc(CCCn2ccc3cc(C#N)ccc32)on1 [Compound 25]	–	–	> 50 µM	–	–	–	2870 nM	–
Cc1cc(-c2noc(C(F)(F)F)n2)ccc1O[C@H]1CCN(c2cc(C(=O)N(C)C)no2)C1 [Compound 34]	22 µL/min/mg	41 µL/min/mg	> 50 µM	< 10 µM	2.5 ×10⁻⁶ cm/s	4.2	58 nM	EC50 [8, 18]: 58.9 nM; fold more potent than 33 (EV-D68) ([8]; relative to enantiomer 33): 10 fold; Solubility, Kinetic (KSOL) [14]: 7 µM (≈ 3.16 µg/mL)
Nc1nc(-c2ccccc2)nc2[nH]nc(Nc3ccc(C(F)(F)F)cc3)c12 [Compound S-60, OBR-5-340, reference compound]	–	–	–	–	–	–	–	Clint HLM ([2]; human liver microsomes): < 10 µL/min/mg; MDCKII-MDR1 Papp A→B [16]: 1.8 10^−6 cm s^−1; LogD (pH 7.4) ([7]; pH 7.4, shake-flask): ≥ 4.5; EC50 ([8]; read-out: EC50 EV-D68, RD cells, strain US/MO/14-18949, geometric mean): 7160 nM; CC50 [1]: > 50 µM; Solubility, Kinetic (KSOL) [14]: 2 µM (≈ 0.741 µg/mL)
